Experimental data reported in the CheMixHub viscosity set.

Test: xn = mol fraction of the nth substance listed

CCC(C)=O + CS(C)=O
viscosity [mPa·s], 101.3 kPa
Conditions | 298.15 K | 308.15 K | 318.15 K
x1 = 0.054 | 1.762 | 1.448 | 1.23
x1 = 0.107 | 1.615 | 1.335 | 1.142
x1 = 0.213 | 1.372 | 1.138 | 0.982
x1 = 0.317 | 1.162 | 0.979 | 0.852
x1 = 0.419 | 0.988 | 0.83 | 0.734
x1 = 0.52 | 0.835 | 0.712 | 0.639
x1 = 0.619 | 0.717 | 0.621 | 0.561
x1 = 0.716 | 0.627 | 0.547 | 0.496
x1 = 0.812 | 0.54 | 0.473 | 0.436
x1 = 0.907 | 0.462 | 0.407 | 0.383
x1 = 0.954 | 0.438 | 0.379 | 0.361

OCCNCCO + C[N+](C)(C)CCO.[Cl-]
viscosity [mPa·s], 101 kPa
Conditions | x2 = 0.091 | x2 = 0.111 | x2 = 0.143
293.15 K | 611.4 | 565.3 | 567
313.15 K | 151.4 | 150.4 | 149.2

CCC(C)=O + Cc1ccc(C)cc1
307.35 K, 101.33 kPa
Conditions | viscosity [mPa·s]
x1 = 0.1273 | 0.515
x1 = 0.311 | 0.48
x1 = 0.3949 | 0.457
x1 = 0.5326 | 0.434
x1 = 0.5913 | 0.419
x1 = 0.6949 | 0.401
x1 = 0.7871 | 0.388

COC(C)=O + Cc1ccc(C)cc1
viscosity [mPa·s], 101 kPa
Conditions | 298.15 K | 308.15 K
x1 = 0.0478 | 0.592 | 0.521
x1 = 0.1516 | 0.548 | 0.49
x1 = 0.2496 | 0.514 | 0.465
x1 = 0.3526 | 0.483 | 0.442
x1 = 0.4453 | 0.46 | 0.423
x1 = 0.492 | 0.449 | 0.415
x1 = 0.5525 | 0.437 | 0.404
x1 = 0.6515 | 0.42 | 0.389
x1 = 0.7506 | 0.406 | 0.376
x1 = 0.8511 | 0.395 | 0.365
x1 = 0.9428 | 0.388 | 0.356

COC(C)=O + Cc1cccc(C)c1
viscosity [mPa·s], 101 kPa
Conditions | 298.15 K | 308.15 K
x1 = 0.0409 | 0.565 | 0.515
x1 = 0.151 | 0.524 | 0.484
x1 = 0.2488 | 0.493 | 0.46
x1 = 0.3516 | 0.466 | 0.438
x1 = 0.4423 | 0.446 | 0.421
x1 = 0.4928 | 0.436 | 0.412
x1 = 0.5514 | 0.426 | 0.403
x1 = 0.6505 | 0.412 | 0.388
x1 = 0.7498 | 0.4 | 0.376
x1 = 0.8506 | 0.392 | 0.364
x1 = 0.9429 | 0.386 | 0.356
